Tests used:
FU97 (Gastric Carcinoma) [1] = assay: Bliss excess, mean over the matrix (fraction); higher = more synergy
Summary of the method: (§1)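 After 24 hours at 37°C and 5% CO2 in 1536-well plates, cells in DMEM/F12 or RPMI plus 10% FBS received two-drug dose matrices for 72 hours. Viability came from CellTiter-Glo 2.0 luminescence and was scaled as inhibition, anchored at 0 by vehicle wells and at 1 by blank wells. Combination Emax is taken as the second-highest inhibition in the matrix, and Bliss excess as the observed combination effect less EA + EB − EA·EB, with EA and EB the single-agent effects.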

[2] = test system: NCI-H1666 (Lung Adenocarcinoma); assay: as above
Summary of the method: as §1

[3] = test system: BICR22 (Oral Cavity Carcinoma); assay: as above
Summary of the method: as §1

IGR-37 (Melanoma) [4] = assay: as above
Summary of the method: as §1

[5] = test system: CAPAN-2 (Pancreatic Carcinoma); assay: as above
Summary of the method: as §1

[6] = test system: PANC-10-05 (Pancreatic Carcinoma); assay: as above
Summary of the method: as §1

[7] = test system: CCK-81 (Colorectal Carcinoma); assay: as above
Summary of the method: as §1

[8] = test system: NCI-H1581 (Non-Small Cell Lung Carcinoma); assay: as above
Summary of the method: as §1

[9] = test system: ONS-76 (Other Solid Carcinomas); assay: as above
Summary of the method: as §1

NY (Osteosarcoma) [10] = assay: as above
Summary of the method: as §1

[11] = test system: KARPAS-422 (B-Cell Non-Hodgkin's Lymphoma); assay: as above
Summary of the method: as §1

[12] = test system: TT (Thyroid Gland Carcinoma); assay: as above
Summary of the method: as §1

[13] = test system: COLO-320-HSR (Colorectal Carcinoma); assay: as above
Summary of the method: as §1

[14] = test system: VCaP (Prostate Carcinoma); assay: as above
Summary of the method: as §1

[15] = test system: NCI-H2066 (Squamous Cell Lung Carcinoma); assay: as above
Summary of the method: as §1

[16] = test system: ECC10 (Gastric Carcinoma); assay: as above
Summary of the method: as §1

U-2-OS (Osteosarcoma) [17] = assay: as above
Summary of the method: as §1

[18] = test system: NCI-H64 (Small Cell Lung Carcinoma); assay: as above
Summary of the method: as §1

FU97 (Gastric Carcinoma) [19] = assay: combination Emax (second highest fraction inhibited in the dose matrix, 72 h); higher = more inhibition; extreme values may be limits of the assay
Summary of the method: as §1

[20] = test system: NCI-H1666 (Lung Adenocarcinoma); assay: as above
Summary of the method: as §1

[21] = test system: BICR22 (Oral Cavity Carcinoma); assay: as above
Summary of the method: as §1

IGR-37 (Melanoma) [22] = assay: as above
Summary of the method: as §1

[23] = test system: CAPAN-2 (Pancreatic Carcinoma); assay: as above
Summary of the method: as §1

[24] = test system: PANC-10-05 (Pancreatic Carcinoma); assay: as above
Summary of the method: as §1

[25] = test system: CCK-81 (Colorectal Carcinoma); assay: as above
Summary of the method: as §1

[26] = test system: NCI-H1581 (Non-Small Cell Lung Carcinoma); assay: as above
Summary of the method: as §1

[27] = test system: ONS-76 (Other Solid Carcinomas); assay: as above
Summary of the method: as §1

NY (Osteosarcoma) [28] = assay: as above
Summary of the method: as §1

[29] = test system: KARPAS-422 (B-Cell Non-Hodgkin's Lymphoma); assay: as above
Summary of the method: as §1

[30] = test system: TT (Thyroid Gland Carcinoma); assay: as above
Summary of the method: as §1

[31] = test system: COLO-320-HSR (Colorectal Carcinoma); assay: as above
Summary of the method: as §1

[32] = test system: VCaP (Prostate Carcinoma); assay: as above
Summary of the method: as §1

[33] = test system: NCI-H2066 (Squamous Cell Lung Carcinoma); assay: as above
Summary of the method: as §1

[34] = test system: ECC10 (Gastric Carcinoma); assay: as above
Summary of the method: as §1

U-2-OS (Osteosarcoma) [35] = assay: as above
Summary of the method: as §1

[36] = test system: NCI-H64 (Small Cell Lung Carcinoma); assay: as above
Summary of the method: as §1
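Wherever Bliss excess, mean over the matrix is given: after 72 h of two-drug dosing.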

SMILES | Bliss excess (FU97 (Gastric Carcinoma) [1]) | Bliss excess [2] | Bliss excess [3] | Bliss excess (IGR-37 (Melanoma) [4]) | Bliss excess [5] | Bliss excess [6] | Bliss excess [7] | Bliss excess [8] | Bliss excess [9] | Bliss excess (NY (Osteosarcoma) [10]) | Bliss excess [11] | Bliss excess [12] | Bliss excess [13] | Bliss excess [14] | Bliss excess [15] | Bliss excess [16] | Bliss excess (U-2-OS (Osteosarcoma) [17]) | Bliss excess [18] | combination Emax (FU97 (Gastric Carcinoma) [19]) | combination Emax [20] | combination Emax [21] | combination Emax (IGR-37 (Melanoma) [22]) | combination Emax [23] | combination Emax [24] | combination Emax [25] | combination Emax [26] | combination Emax [27] | combination Emax (NY (Osteosarcoma) [28]) | combination Emax [29] | combination Emax [30] | combination Emax [31] | combination Emax [32] | combination Emax [33] | combination Emax [34] | combination Emax (U-2-OS (Osteosarcoma) [35]) | combination Emax [36]
Cc1c2c(nn1C)CSCc1cc(n(C)n1)CSc1cc(c3ccccc3c1)OCCCc1c(C(=O)O)n(C)c3c-2c(Cl)ccc13 [AZD5991] + CC(=O)O[C@H]1C(=O)[C@@]2(C)[C@H]([C@H](OC(=O)c3ccccc3)[C@]3(O)C[C@H](OC(=O)[C@H](O)[C@@H](NC(=O)c4ccccc4)c4ccccc4)C(C)=C1C3(C)C)[C@]1(OC(C)=O)CO[C@@H]1C[C@@H]2O [Paclitaxel] (first compound max 1 µM, 7x7, partner max 3 µM) | -0.0142 | -0.0239 | 0.0021 | 0.0439 | 0.0086 | 0.0368 | -0.0396 | 0.0114 | -0.0383 | 0.0268 | 0.0084 | -0.0423 | -0.0443 | 0.0074 | -0.027 | -0.0567 | -0.0291 | 0.0573 | 0.257 | 0.563 | 0.98 | 0.885 | 0.144 | 0.569 | 0.989 | 1 | 0.644 | 0.963 | 0.996 | 0.26 | 0.991 | 0.977 | 0.589 | 0.942 | 0.735 | 0.719
Cc1c2c(nn1C)CSCc1cc(n(C)n1)CSc1cc(c3ccccc3c1)OCCCc1c(C(=O)O)n(C)c3c-2c(Cl)ccc13 [AZD5991] + CS(=O)(=O)CCNCc1ccc(-c2ccc3ncnc(Nc4ccc(OCc5cccc(F)c5)c(Cl)c4)c3c2)o1 [Lapatinib] (first compound max 1 µM, 7x7, partner max 10 µM) | -0.0583 | 0.0641 | 0.0948 | -0.0622 | -0.0087 | -0.0585 | 0.055 | -0.0138 | -0.0232 | -0.0523 | -0.0425 | 0.0128 | 0.0422 | -0.0052 | -0.0195 | 0.0088 | -0.0345 | -0.0332 | 0.906 | 0.942 | 0.969 | 0.36 | 0.186 | 0.474 | 1 | 0.968 | 0.294 | 0.564 | 0.965 | 0.237 | 1 | 0.96 | 0.426 | 0.975 | 0.197 | 0.111
Cc1c2c(nn1C)CSCc1cc(n(C)n1)CSc1cc(c3ccccc3c1)OCCCc1c(C(=O)O)n(C)c3c-2c(Cl)ccc13 [AZD5991] + Nc1ccn([C@@H]2O[C@H](CO)[C@@H](O)C2(F)F)c(=O)n1 [Gemcitabine] (first compound max 1 µM, 7x7, partner max 0.3 µM) | 0.0193 | -0.0299 | -0.0254 | 0.011 | -0.035 | -0.0263 | 0.0013 | 0.0459 | 0.0088 | -0.0564 | -0.0219 | -0.0048 | -0.0386 | 0.0667 | -0.0415 | 0.0593 | -0.0017 | 0.0292 | 0.232 | 0.473 | 0.957 | 0.79 | 0.101 | 0.472 | 0.942 | 0.998 | 0.499 | 0.88 | 0.979 | 0.405 | 0.944 | 0.977 | 0.184 | 0.935 | 0.387 | 0.37
C[C@@H]1COCCN1c1cc(C2([S@](C)(=N)=O)CC2)nc(-c2ccnc3[nH]ccc23)n1 [AZD6738] + C1CC(C1)(C(=O)[O-])C(=O)[O-].N.N.[Pt+2] [Carboplatin] (first compound max 10 µM, 7x7, partner max 10 µM) | -0.0215 | -0.0814 | -0.0297 | -0.0539 | -0.0168 | -0.0611 | -0.0429 | -0.0399 | -0.0512 | -0.0504 | -0.0683 | -0.0108 | -0.036 | -0.0644 | -0.0715 | -0.0097 | -0.0234 | -0.0431 | 0.349 | 0.304 | 0.804 | 0.616 | 0.159 | 0.477 | 0.886 | 0.281 | 0.814 | 0.568 | 0.434 | 0.442 | 0.495 | 0.48 | 0.412 | 0.397 | 0.511 | 0.793
Cc1cc2ncnn2cc1Nc1ncc2c(n1)n(C1CCOCC1)c(=O)n2C [AZD7648] + COc1cc([C@@H]2c3cc4c(cc3[C@@H](O[C@@H]3O[C@@H]5CO[C@@H](C)O[C@H]5[C@H](O)[C@H]3O)[C@H]3COC(=O)[C@H]23)OCO4)cc(OC)c1O [Etoposide] (first compound max 10 µM, 7x7, partner max 10 µM) | -0.0016 | 0.0131 | 0.13 | 0.0178 | 0.0103 | 0.0148 | 0.093 | 0.0368 | 0.0815 | 0.0475 | -0.0391 | 0.0627 | 0.0573 | 0.0464 | -0.03 | 0.108 | 0.0528 | -0.0142 | 0.298 | 0.401 | 0.856 | 0.703 | 0.186 | 0.636 | 0.565 | 0.787 | 0.748 | 0.654 | 0.884 | 0.431 | 0.606 | 0.579 | 0.332 | 0.913 | 0.647 | 0.316
C[C@@H](Nc1cc(F)cc(F)c1)c1cc(C(=O)N(C)C)cc2c(=O)cc(N3CCOCC3)oc12 [AZD8186] + C1CN(CCC1(C(=O)N[C@@H](CCO)C2=CC=C(C=C2)Cl)N)C3=NC=NC4=C3C=CN4 [AZD5363] (first compound max 10 µM, 7x7, partner max 10 µM) | -0.0072 | -0.0707 | 0.0421 | 0.0334 | -0.0305 | -0.0847 | -0.0118 | -0.0207 | -0.028 | 0.0425 | -0.106 | -0.0413 | 0.0159 | -0.0177 | -0.0364 | 0.0141 | -0.0324 | 0.0116 | 0.374 | 0.406 | 0.308 | 0.44 | 0.285 | 0.436 | 0.266 | 0.101 | 0.312 | 0.325 | 0.628 | 0.415 | 0.184 | 0.443 | 0.513 | 0.276 | 0.279 | 0.277
C[C@@H](Nc1cc(F)cc(F)c1)c1cc(C(=O)N(C)C)cc2c(=O)cc(N3CCOCC3)oc12 [AZD8186] + CC(=O)c1c(C)c2cnc(Nc3ccc(N4CCNCC4)cn3)nc2n(C2CCCC2)c1=O [Palbociclib] (first compound max 10 µM, 7x7, partner max 10 µM) | 0.0755 | -0.0433 | -0.0275 | 0.0795 | 0.0182 | -0.0689 | 0.0824 | 0.085 | 0.0763 | 0.0895 | 0.018 | 0.0582 | 0.0312 | 0.0706 | -0.0299 | 0.08 | 0.0498 | 0.0127 | 0.386 | 0.454 | 0.192 | 0.464 | 0.213 | 0.383 | 0.418 | 0.651 | 0.424 | 0.408 | 0.707 | 0.416 | 0.382 | 0.371 | 0.319 | 0.661 | 0.391 | 0.469

Source: the supplement of paper PMC11061612
